The values below come from US9527869B2, “Indolizine derivatives as phoshoinositide 3-kinases inhibitors” (CHIESI FARMACEUTICI S.P.A., priority 2014, dated 2016).

Holding throughout (type): biochemical
Assay [1] deals with T1, PI3Kα (Homo sapiens, UniProt P42336).
T1 construct: purchased Millipore Ltd (Billerica, Mass.)
As to the kind of experiment: In vitro determination of the PI3K enzyme inhibitory activity in the cell free assay (ADP-Glo Kinase Assay), PI3Kα. Conditions: ATP 50 μM, read-out: PI3K alpha inhibition. An outline of the steps: (§1)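 Human recombinant PI3K isoforms with PI/PS lipid substrates (50 μM in 2× buffer, Tris pH 7.5, DTT) were run 60 min at room temperature. Final ATP was 50 μM for α, 100 μM for β, 30 μM for γ and 80 μM for δ. ADP formation was read by ADP-Glo luminescence, and IC50 came from a four-parameter logistic fit.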
On the technique in general: ADP-Glo turns the ADP formed in a reaction into a luminescent signal.

Assay [2] has as its target T2, PI3Kγ (Homo sapiens, UniProt P48736).
T2 construct: purchased Millipore Ltd (Billerica, Mass.)
Briefly: In vitro determination of the PI3K enzyme inhibitory activity in the cell free assay (ADP-Glo Kinase Assay), PI3Kγ. Conditions: ATP 30 μM, read-out: PI3K gamma inhibition. An outline of the steps:
as §1

In assay [3] the target is T3, PI3Kβ (Homo sapiens, UniProt P42338).
T3 construct: purchased Millipore Ltd (Billerica, Mass.)
T3 sequence (P42338 whole entry): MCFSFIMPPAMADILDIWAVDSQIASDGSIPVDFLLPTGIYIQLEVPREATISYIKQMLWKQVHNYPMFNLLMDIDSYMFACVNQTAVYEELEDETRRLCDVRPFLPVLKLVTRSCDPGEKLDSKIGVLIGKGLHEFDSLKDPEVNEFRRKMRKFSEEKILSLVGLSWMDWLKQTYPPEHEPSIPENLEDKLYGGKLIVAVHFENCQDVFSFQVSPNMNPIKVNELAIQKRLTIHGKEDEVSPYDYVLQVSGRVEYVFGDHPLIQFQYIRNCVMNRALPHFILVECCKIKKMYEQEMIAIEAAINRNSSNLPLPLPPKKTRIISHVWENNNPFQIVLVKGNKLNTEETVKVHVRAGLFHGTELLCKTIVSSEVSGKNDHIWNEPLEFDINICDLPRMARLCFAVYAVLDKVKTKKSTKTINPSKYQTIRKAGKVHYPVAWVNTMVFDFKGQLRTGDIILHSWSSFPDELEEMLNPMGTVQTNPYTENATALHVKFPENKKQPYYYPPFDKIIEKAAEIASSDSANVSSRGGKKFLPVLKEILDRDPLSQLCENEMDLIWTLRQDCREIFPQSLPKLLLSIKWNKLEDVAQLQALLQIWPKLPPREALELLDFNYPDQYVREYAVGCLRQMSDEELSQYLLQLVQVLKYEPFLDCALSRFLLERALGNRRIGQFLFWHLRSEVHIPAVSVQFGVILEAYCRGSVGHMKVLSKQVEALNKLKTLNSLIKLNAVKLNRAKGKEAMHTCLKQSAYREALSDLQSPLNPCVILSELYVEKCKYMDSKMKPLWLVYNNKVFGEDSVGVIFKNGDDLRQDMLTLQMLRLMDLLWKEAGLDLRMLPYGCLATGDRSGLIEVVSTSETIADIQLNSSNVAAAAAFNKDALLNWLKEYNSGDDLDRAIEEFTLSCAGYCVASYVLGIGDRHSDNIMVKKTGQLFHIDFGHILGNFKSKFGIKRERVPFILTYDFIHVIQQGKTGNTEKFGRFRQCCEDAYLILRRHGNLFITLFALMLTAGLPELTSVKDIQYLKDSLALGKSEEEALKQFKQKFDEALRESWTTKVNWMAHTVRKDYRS
T3 sequence (P27986 whole entry partner): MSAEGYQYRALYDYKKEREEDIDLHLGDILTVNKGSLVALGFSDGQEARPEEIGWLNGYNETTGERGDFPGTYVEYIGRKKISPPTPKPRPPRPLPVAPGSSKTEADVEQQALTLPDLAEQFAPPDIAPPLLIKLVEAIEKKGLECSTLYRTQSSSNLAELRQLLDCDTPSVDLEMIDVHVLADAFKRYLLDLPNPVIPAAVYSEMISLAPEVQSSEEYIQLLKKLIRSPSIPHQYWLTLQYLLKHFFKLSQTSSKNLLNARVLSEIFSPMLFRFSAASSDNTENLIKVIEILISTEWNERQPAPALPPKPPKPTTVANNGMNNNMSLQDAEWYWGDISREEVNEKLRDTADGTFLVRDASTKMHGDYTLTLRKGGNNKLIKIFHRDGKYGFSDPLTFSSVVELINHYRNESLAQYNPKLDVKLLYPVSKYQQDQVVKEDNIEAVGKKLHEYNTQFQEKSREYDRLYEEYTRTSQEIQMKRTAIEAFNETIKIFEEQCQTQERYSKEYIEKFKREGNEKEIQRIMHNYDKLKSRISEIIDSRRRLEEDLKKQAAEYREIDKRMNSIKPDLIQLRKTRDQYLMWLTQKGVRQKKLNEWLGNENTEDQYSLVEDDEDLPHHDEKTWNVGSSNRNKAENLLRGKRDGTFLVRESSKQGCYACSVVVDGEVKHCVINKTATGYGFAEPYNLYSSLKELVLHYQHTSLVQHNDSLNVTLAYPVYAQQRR
As to the kind of experiment: In vitro determination of the PI3K enzyme inhibitory activity in the cell free assay (ADP-Glo Kinase Assay), PI3Kβ. The note with it: ATP 100 μM, read-out: PI3K beta inhibition. An outline of the steps: as §1

Assay [4] deals with T4, PI3Kδ (Homo sapiens, UniProt O00329).
T4 construct: purchased Millipore Ltd (Billerica, Mass.)
T4 sequence (O00329 whole entry): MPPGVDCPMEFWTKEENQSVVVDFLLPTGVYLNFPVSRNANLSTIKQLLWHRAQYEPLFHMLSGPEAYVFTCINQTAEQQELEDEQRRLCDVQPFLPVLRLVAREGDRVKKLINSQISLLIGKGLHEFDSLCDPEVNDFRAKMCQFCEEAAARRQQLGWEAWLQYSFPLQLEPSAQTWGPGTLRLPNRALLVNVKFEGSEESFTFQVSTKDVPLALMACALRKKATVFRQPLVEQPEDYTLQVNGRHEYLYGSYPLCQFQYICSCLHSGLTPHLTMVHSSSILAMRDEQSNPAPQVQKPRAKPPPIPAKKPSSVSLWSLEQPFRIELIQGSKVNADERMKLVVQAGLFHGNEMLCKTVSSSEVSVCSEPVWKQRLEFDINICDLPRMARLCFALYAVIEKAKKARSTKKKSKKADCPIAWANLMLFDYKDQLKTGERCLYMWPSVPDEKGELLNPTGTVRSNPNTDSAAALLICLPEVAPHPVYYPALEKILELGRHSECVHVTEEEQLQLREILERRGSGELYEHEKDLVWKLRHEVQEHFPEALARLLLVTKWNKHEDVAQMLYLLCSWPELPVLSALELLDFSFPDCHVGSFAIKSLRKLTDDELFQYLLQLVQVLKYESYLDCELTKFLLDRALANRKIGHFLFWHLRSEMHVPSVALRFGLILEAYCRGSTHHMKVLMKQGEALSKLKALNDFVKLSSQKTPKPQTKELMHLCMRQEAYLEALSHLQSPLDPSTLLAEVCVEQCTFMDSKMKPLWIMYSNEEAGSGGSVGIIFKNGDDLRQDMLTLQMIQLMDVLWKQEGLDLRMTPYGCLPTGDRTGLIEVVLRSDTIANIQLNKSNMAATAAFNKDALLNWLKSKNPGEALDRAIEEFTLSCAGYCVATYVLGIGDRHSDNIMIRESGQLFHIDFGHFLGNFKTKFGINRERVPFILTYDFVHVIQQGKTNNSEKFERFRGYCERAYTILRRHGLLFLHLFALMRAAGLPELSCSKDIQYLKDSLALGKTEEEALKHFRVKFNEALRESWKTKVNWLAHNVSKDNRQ
T4 sequence (P27986 whole entry partner): as the sequence (P27986 whole entry partner) above
As to the kind of experiment: In vitro determination of the PI3K enzyme inhibitory activity in the cell free assay (ADP-Glo Kinase Assay), PI3Kδ. Conditions: ATP 80 μM, read-out: PI3K delta inhibition. The procedure, abridged:
as §1

T1 sequence (P42336 whole entry): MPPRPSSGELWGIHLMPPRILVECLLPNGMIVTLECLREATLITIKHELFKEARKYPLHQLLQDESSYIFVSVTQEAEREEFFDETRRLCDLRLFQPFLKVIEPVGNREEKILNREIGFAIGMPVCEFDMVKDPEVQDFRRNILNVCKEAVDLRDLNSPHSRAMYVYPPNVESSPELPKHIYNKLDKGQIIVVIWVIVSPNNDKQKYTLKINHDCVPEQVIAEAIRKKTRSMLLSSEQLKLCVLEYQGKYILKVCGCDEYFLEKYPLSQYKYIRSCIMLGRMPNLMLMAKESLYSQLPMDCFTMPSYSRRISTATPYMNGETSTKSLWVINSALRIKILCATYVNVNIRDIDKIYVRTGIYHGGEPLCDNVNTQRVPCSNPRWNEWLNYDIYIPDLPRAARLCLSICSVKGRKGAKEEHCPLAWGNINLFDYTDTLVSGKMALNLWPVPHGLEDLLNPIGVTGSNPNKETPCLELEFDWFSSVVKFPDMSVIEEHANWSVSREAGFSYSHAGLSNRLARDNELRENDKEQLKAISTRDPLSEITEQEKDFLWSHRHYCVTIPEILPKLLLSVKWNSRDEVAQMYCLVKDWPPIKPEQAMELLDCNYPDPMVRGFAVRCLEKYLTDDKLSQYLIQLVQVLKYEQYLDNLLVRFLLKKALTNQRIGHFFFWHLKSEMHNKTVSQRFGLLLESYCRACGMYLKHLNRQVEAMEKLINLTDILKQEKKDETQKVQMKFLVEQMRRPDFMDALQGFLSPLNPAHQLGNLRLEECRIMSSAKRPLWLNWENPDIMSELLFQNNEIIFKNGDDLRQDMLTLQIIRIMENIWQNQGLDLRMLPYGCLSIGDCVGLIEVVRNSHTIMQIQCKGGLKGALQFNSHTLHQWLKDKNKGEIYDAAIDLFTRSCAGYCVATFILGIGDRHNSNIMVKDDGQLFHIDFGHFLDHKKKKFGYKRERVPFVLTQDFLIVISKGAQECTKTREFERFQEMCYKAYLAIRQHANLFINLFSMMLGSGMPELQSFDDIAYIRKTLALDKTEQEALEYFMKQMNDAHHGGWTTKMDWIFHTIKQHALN
T1 sequence (P27986 whole entry partner): as the sequence (P27986 whole entry partner) above
T2 sequence (P48736 whole entry): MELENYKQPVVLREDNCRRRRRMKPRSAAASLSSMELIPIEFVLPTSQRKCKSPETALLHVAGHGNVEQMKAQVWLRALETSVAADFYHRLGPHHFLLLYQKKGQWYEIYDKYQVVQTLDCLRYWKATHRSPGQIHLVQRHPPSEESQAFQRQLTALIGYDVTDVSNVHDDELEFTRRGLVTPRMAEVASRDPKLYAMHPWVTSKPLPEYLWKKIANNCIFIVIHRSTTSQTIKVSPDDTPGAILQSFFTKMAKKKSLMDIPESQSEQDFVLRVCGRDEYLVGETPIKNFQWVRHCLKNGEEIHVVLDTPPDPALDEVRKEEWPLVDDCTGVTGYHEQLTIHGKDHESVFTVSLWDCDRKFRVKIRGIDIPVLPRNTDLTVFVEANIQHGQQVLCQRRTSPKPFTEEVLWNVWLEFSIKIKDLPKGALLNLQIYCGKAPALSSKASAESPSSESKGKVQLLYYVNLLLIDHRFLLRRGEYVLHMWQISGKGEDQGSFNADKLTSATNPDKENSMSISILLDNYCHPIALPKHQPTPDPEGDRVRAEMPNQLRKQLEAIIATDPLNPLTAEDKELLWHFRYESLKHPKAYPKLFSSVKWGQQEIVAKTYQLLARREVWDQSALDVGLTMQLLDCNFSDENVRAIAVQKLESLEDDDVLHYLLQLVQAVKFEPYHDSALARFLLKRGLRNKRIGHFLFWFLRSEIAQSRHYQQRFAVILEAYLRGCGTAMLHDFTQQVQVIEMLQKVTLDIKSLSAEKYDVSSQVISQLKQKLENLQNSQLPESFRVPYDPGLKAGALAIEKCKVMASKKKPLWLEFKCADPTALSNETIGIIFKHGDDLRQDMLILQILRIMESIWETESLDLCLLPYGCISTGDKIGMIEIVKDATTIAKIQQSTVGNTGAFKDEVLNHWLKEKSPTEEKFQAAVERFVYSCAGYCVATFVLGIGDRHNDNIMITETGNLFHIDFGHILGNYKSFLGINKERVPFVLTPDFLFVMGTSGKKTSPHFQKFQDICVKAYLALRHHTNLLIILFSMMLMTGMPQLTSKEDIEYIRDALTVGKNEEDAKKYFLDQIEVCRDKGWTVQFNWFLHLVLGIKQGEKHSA

On to `CC(c1cc2ccccn2c1CN1CCOCC1)n1nc(-c2cc(O)cc(F)c2)c2c(N)ncnc21` (stereo not shown) [Example 141, 3-(4-amino-1-{1-[3-(morpholin-4-ylmethyl)indolizin-2-yl]ethyl}-1H-pyrazolo[3,4-d]-pyrimidin-3-yl)-5-fluorophenol], for which the IC50 in assay [1] was 0.01 to 1 µM; in assay [2], 0.01 to 1 µM; in assay [3], 0.01 to 1 µM; in assay [4], less than 0.01 µM.

With `CC(Nc1ncnc(N)c1CN1CCOCC1)c1cc2ccccn2c1-c1ccccn1` (stereo not shown) [Example 57, 5-(morpholin-4-ylmethyl)-4-N-{1-[3-(pyridin-2-yl)indolizin-2-yl]ethyl}pyrimidine-4,6-diamine], the IC50 in assay [1], in assay [2], in assay [3] and in assay [4] was more than 1 µM throughout.

Turning to `Nc1ncnc2c1ncn2Cc1cc2ccccn2c1-c1cccc(F)c1` [Example 4, 9-{[3-(3-fluorophenyl)indolizin-2-yl]methyl}-9H-purin-6-amine], the IC50 was more than 1 µM in assay [1], more than 1 µM in assay [2], more than 1 µM in assay [3] and 0.01 to 1 µM in assay [4].

For `CC(Nc1ncnc(N)c1C#N)c1cc2ccccn2c1-c1ccsc1` (stereo not shown) [Example 38, 4-amino-6-({1-[3-(thiophen-3-yl)indolizin-2-yl]ethyl}amino)pyrimidine-5-carbonitrile], the IC50 in assay [1] was more than 1 µM; in assay [2] it was more than 1 µM; in assay [3], more than 1 µM; in assay [4] it was 0.01 to 1 µM.

Consider `CC(c1cc2ccccn2c1N1CCCC1=O)n1nc(-c2cc(O)cc(F)c2)c2c(N)ncnc21` (stereo not shown) [Example 95, 1-(2-{1-[4-amino-3-(3-fluoro-5-hydroxyphenyl)-1H-pyrazolo[3,4-d]pyrimidin-1-yl]ethyl}indolizin-3-yl)pyrrolidin-2-one], for which the IC50 in assay [1] is 0.01 to 1 µM; in assay [2], 0.01 to 1 µM; in assay [3], 0.01 to 1 µM; in assay [4], less than 0.01 µM.

Take `CC(c1cc2ccccn2c1-c1ccccn1)n1nc(-c2cc(O)cc(Cl)c2)c2c(N)ncnc21` (stereo not shown) [Example 72, 3-(4-amino-1-{1-[3-(pyridin-2-yl)indolizin-2-yl]ethyl}-1H-pyrazolo[3,4-d]pyrimidin-3-yl)-5-chlorophenol]: the IC50 in assay [1] is more than 1 µM; in assay [2], 0.01 to 1 µM; in assay [3], 0.01 to 1 µM; in assay [4], less than 0.01 µM.

Regarding `CC(Nc1ncnc(N)c1C#N)c1cc2ccccn2c1C1=CCNCC1` (stereo not shown) [Example 45, 4-amino-6-({1-[3-(1,2,3,6-tetrahydropyridin-4-yl)indolizin-2-yl]ethyl}amino)pyrimidine-5-carbonitrile], the IC50 was more than 1 µM in assay [1], more than 1 µM in assay [2], 0.01 to 1 µM in assay [3] and 0.01 to 1 µM in assay [4].

As to `CC(Nc1ncnc(N)c1C(F)(F)F)c1cc2ccccn2c1-c1ccccn1` (stereo not shown) [Example 49, 4-N-{1-[3-(pyridin-2-yl)indolizin-2-yl]ethyl}-5-(trifluoromethyl)pyrimidine-4,6-diamine], the IC50 in assay [1] was more than 1 µM; in assay [2], more than 1 µM; in assay [3], more than 1 µM; in assay [4], 0.01 to 1 µM.

`C[C@@H](c1cc2ccccn2c1-c1ccncc1)n1nc(-c2cc(O)cc(F)c2)c2c(N)ncnc21` (single isomer, unassigned) [Example 83, 3-(4-amino-1-{1-[3-(pyridin-4-yl)indolizin-2-yl]ethyl}-1H-pyrazolo[3,4-d]pyrimidin-3-yl)-5-fluorophenol]: the IC50 in assay [1] is 0.01 to 1 µM; in assay [2], 0.01 to 1 µM; in assay [3], 0.01 to 1 µM; in assay [4] it was less than 0.01 µM.

On to `CC(c1cc2ccccn2c1-c1ccccn1)n1nc(-c2cc(O)cc(F)c2)c2c(N)ncnc21` (racemic) [Example 79, 3-(4-amino-1-{1-[3-(pyridin-2-yl)indolizin-2-yl]ethyl}-1H-pyrazolo[3,4-d]pyrimidin-3-yl)-5-fluorophenol], for which the IC50 in assay [1] is 0.01 to 1 µM; in assay [2] it was 0.01 to 1 µM; in assay [3] it was 0.01 to 1 µM; in assay [4], less than 0.01 µM.
